Reference: patent US10040804B2, “Compounds targeting proteins, compositions, methods, and uses thereof” (BioTheryX, Inc., priority 2016, dated 2018)

Tests used:
IL-6 = IL-6 expression in LPS stimulated PBMCs (Meso Scale); format: cell-based, human; conditions: Homo sapiens, PBMC, LPS-stimulated PBMCs; for inhibition at 1 µM: compound concentration 1 μM; for inhibition at 0.1 µM: compound concentration 0.1 μM
Procedure: FIGS. 6 and 9B are graphs showing IL-6 expression in LPS stimulated peripheral blood mononuclear cells (PBMCs). PBMCs were plated in 96-well plates and pretreated with compound (Compound 1-9 individually) for 1 h, and then induced with 100 ng/mL LPS for 18-24 h. Cytokines were measured according to MesoScale protocol. Negative control wells were treated with DMSO. Compound activity was measured as a percentage of LPS-induced activity. “Rev” is lenalidomide.
(§1) Frozen primary blood mononuclear cells (PBMCs) and frozen CD14+ mobilized peripheral blood monocytes were purchased from AllCells. Cells were quick thawed, and washed 1-time with RPMI-1640/10% FBS/1% Penicillin/1% Streptomycin and plated in 96-well plates at 200,000 cells per well. Cells were pretreated with DMSO only, Compound 5013 (lenolidamide) or the indicated compound for 1 h and then induced with 100 ng/mL lipopolysaccharide (LPS) for 18-24 h. The supernatant was analyzed for IL-1 beta, IL-6, and TNF-α using Meso Scale assay according to manufacturer's protocol. The negative control wells were treated with DMSO.
(§2) PBMCs: AllCells PB003F, Normal Peripheral Blood MNC.
(§3) Media: RPMI 1640/10% FBS/1% Pen-Strep.

IL-1β = IL-1β expression in LPS stimulated PBMCs (Meso Scale); format: cell-based, human; conditions: Homo sapiens, PBMC; for inhibition at 1 µM: compound concentration 1 μM; for inhibition at 0.1 µM: compound concentration 0.1 μM
Procedure: FIGS. 5 and 9A are graphs showing IL-1-beta expression in LPS stimulated peripheral blood mononuclear cells (PBMCs), PBMCs were plated in 96-well plates and pretreated with compound (Compound 1-9 individually) for 1 h, and then induced with 100 ng/mL LPS for 18-24 h. Cytokines in the media were measured according to MesoScale protocol. Negative control wells were treated with DMSO. Compound activity is measured as a percentage of LPS-induced activity. “Rev” is lenalidomide.
as §1, §2, §3

GSPT1 = molecular target: T1, GSPT1 (Homo sapiens, UniProt P15170); experiment: GSPT1 protein levels by Western Blot analysis; format: cell-based; conditions: DMSO = 100.00; for remaining activity at 0.1 µM: 100 nM compound concentration; for remaining activity at 1 µM: 1 μM compound concentration
T1 construct: Whole cell extracts were prepared using RIPA buffer according to manufacturer's protocol (Pierce); endogenous in cells
T1 sequence (P15170 whole entry): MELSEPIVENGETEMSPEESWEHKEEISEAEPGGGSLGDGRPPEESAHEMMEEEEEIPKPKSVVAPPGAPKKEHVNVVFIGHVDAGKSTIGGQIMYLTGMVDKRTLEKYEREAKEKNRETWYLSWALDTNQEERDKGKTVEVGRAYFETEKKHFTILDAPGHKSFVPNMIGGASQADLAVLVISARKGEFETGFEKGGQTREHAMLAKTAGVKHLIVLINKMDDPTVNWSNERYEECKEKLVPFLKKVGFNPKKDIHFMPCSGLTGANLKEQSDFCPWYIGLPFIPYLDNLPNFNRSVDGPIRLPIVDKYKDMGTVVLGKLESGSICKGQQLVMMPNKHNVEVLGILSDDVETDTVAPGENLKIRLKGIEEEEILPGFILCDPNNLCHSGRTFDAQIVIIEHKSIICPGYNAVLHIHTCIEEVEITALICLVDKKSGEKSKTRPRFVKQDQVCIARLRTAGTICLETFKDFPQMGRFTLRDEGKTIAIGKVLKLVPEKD
T1 sequence (Q96SW2 whole entry, further chain): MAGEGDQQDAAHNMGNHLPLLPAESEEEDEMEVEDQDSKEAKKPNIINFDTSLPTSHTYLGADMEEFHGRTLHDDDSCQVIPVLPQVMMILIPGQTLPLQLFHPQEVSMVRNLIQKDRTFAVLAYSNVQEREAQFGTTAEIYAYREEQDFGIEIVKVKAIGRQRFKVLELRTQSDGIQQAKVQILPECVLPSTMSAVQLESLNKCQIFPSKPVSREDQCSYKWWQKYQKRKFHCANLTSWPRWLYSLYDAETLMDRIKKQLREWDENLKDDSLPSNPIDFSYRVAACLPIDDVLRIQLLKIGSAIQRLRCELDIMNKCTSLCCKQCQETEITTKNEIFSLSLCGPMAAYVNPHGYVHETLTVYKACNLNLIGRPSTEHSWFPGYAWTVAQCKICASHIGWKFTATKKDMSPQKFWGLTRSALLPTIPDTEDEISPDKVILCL
T1 sequence (Q16531 whole entry partner): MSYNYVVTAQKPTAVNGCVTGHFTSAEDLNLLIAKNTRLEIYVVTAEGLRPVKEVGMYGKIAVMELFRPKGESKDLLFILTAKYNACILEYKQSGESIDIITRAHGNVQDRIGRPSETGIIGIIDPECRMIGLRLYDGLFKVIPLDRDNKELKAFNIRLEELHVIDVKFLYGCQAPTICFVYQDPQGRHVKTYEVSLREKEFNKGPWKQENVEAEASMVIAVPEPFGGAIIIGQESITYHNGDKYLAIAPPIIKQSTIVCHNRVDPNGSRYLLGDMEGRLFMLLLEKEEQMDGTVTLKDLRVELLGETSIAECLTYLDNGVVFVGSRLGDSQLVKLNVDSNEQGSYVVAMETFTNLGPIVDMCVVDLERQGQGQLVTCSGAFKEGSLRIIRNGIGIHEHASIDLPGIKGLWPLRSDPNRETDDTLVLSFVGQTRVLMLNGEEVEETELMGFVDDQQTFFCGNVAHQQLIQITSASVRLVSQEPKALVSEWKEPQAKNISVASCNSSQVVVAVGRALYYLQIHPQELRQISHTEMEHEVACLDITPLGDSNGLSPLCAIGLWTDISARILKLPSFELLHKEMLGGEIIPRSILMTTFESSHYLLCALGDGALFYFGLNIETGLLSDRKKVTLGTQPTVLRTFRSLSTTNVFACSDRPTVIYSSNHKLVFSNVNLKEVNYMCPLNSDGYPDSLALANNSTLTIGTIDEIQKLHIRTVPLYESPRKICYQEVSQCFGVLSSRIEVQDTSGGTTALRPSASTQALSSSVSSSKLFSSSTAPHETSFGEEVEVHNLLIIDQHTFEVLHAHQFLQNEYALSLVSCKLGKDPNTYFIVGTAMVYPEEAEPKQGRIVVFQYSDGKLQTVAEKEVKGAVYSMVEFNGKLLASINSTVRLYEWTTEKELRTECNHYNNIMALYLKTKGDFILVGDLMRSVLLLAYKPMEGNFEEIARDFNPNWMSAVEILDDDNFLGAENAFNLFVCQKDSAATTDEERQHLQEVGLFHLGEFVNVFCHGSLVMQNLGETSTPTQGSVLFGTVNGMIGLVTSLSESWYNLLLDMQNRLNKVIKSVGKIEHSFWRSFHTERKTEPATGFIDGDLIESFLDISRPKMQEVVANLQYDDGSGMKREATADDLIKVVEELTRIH
Procedure: Cells were lysed using RIPA Buffer (Pierce) and a Western Blot analysis was performed using anti-GSPT1 and anti-β-actin antibodies. FIG. 11B is a graph showing the expression levels of GSPT1 protein in Molm-13 (AML) cells. Protein expression levels were measured using the LiCor Odyssey instrumentation and methods.
Western Blot Protocol: Cell lines were grown in RPMI 1640 supplemented with streptomycin, penicillin and 10% fetal bovine serum.
Cells were cultured at approximately 10^6 cells per mL and incubated in DMSO or each of the indicated compounds for 6-8 h. Whole cell extracts were prepared using RIPA buffer according to manufacturer's protocol (Pierce). Briefly, 2×10^6 cells were washed once in PBS, the cell pellets were resuspended in RIPA buffer and allowed to incubate for 15 minutes on ice. Cells debris was removed by centrifugation and the cleared whole cell lysates were transferred to new tubes for further analysis.
For Western blot analysis, whole cell protein extracts were separated on 4-12% SDS-polyacrylamide gels, transferred to nitrocellulose, and probed with the indicated primary antibodies. Membranes were subsequently washed and probed with the appropriate IRDye secondary antibodies (LI-COR). The signal was detected using the Odyssey Imaging System (LI-COR).
GSPT1: Rabbit anti-GSPT1 was obtained from Abcam, ab126090 (Cambridge, Eng.)

MDA-MB-231 cells = experiment: MDA-MB-231 cell viability (CellTiter-Glo); format: cell-based; conditions: Homo sapiens, 72 h, 3 days, DMSO = 100.00; for viability at 1 µM: 1 μM compound concentration; for viability at 10 µM: 10 μM compound concentration
Procedure: (§4) Molm-13 cells were cultivated in RPMI-1640 (10% FBS/1% pen-strep) and were plated in white walled 96-well plates at 20,000 cells/well. H1048 cells were cultured in DMEM:F12 media supplemented with 5% fetal bovine serum, insulin, transferrin, sodium selenite, hydrocortisone, β-estradiol, penicillin and streptomycin, and were plated in white walled 96-well plates at 20,000 cells/well. MDA-MB-231 cells were cultured in DMEM media supplemented with 10% fetal bovine serum, penicillin and streptomycin, and were plated in white walled 96-well plates at 10,000 cells/well. Cells were treated with compound or DMSO (0.1%, control) and the cultures were incubated for 3 days at 37° C. and 5% CO2. Following the incubation period, 100 μL of CellTiterGlow (CTG) reagent (CellTiter-Glo® Luminescent Cell Viability Assay, Promega (Madison, Wis.)) was added to each well. Following a 10 min incubation with shaking, luminescence was measured using a Victor Wallac Luminometer.

H1048 cells = experiment: H1048 cell viability (CellTiter-Glo); format: cell-based; conditions: Homo sapiens; for viability at 1 µM / viability at 10 µM: NCI-H1048, 72 h, H1048, 3 days, DMSO = 100.00; for viability at 1 µM: 1 μM compound concentration; for viability at 10 µM: 10 μM compound concentration
Procedure: (§5) FIG. 10A is a graph showing antiproliferative activity in H1048 (SCLC) cells. FIG. 10B is a graph showing antiproliferative activity in Molm-13 (AML) cells. In FIGS. 10A and 10B, the cells were incubated for 72 hrs with Compound 9 at the indicated concentrations or DMSO. Compound activity was measured based on the signal from remaining viable cells.
as §4

Molm-13 cells = experiment: Molm-13 cell viability (CellTiter-Glo); format: cell-based; conditions: Homo sapiens; for cytotoxicity at 1 µM: compound concentration 1 μM; for cytotoxicity at 0.1 µM: compound concentration 0.1 μM
Procedure: as §5, §4

TNF-α = TNF-α expression in LPS stimulated PBMCs (Meso Scale); format: cell-based, human; conditions: Homo sapiens, PBMC; for inhibition at 1 µM: compound concentration 1 μM; for inhibition at 0.1 µM: compound concentration 0.1 μM
Procedure: FIGS. 7 and 9C are graphs showing TNF-a expression in LPS stimulated peripheral blood mononuclear cells (PBMCs). PBMCs were plated in 96-well plates and pretreated with compound (Compound 1-9 individually) for 1 h, and then induced with 100 ng/mL LPS for 18-24 h. Cytokines in the media were measured according to MesoScale protocol. The negative control wells were treated with DMSO. Compound activity is measured as a percentage of LPS-induced activity. “Rev” is lenalidomide.
as §1, §2, §3

[1] = MOLM-13, read-out: % Inhibition (MOLM-13 Cell Viability)

Cc1ccc(NC(=O)NCc2scc3c2CN([C@H]2CCCC(=O)NC2=O)C3=O)nc1Cl [Compound 57, (S)-1-(6-Chloro-5-methylpyridin-2-yl)-3-((5-(2,7-dioxoazepan-3-yl)-4-oxo-5,6-dihydro-4H-thieno[3,4-c]pyrrol-1-yl)methyl)urea]
inhibition at 1 µM (IL-6): 32% | inhibition at 1 µM (IL-1β): 42% | remaining activity at 0.1 µM (GSPT1): 265% | remaining activity at 1 µM (GSPT1): 28.4% | viability at 1 µM (MDA-MB-231 cells): 107% | viability at 10 µM (MDA-MB-231 cells): 52% | viability at 1 µM (H1048 cells): 12.4% | viability at 10 µM (H1048 cells): 8.7% | cytotoxicity at 1 µM (Molm-13 cells; [1]): 45% | inhibition at 1 µM (TNF-α): 44%

Cc1ccc(NC(=O)NCc2scc3c2CN(C2CCC(=O)NC2=O)C3=O)cn1 (stereo not shown) [Compound 53, 1-((5-(2,6-Dioxopiperidin-3-yl)-4-oxo-5,6-dihydro-4H-thieno[3,4-c]pyrrol-1-yl)methyl)-3-(6-methylpyridin-3-yl)urea]
inhibition at 0.1 µM (IL-6): 90% | inhibition at 0.1 µM (IL-1β): 60% | remaining activity at 0.1 µM (GSPT1): 23.5% | remaining activity at 1 µM (GSPT1): 6.18% | viability at 1 µM (MDA-MB-231 cells): 27.6% | viability at 10 µM (MDA-MB-231 cells): 21.3% | viability at 1 µM (H1048 cells): 8.51% | viability at 10 µM (H1048 cells): 8.09% | cytotoxicity at 0.1 µM (Molm-13 cells; [1]): 100% | inhibition at 0.1 µM (TNF-α): 65%

Cc1cc(C)c(NC(=O)NCc2scc3c2CN(C2CCC(=O)NC2=O)C3=O)cc1Cl (stereo not shown) [Compound 49, 1-(5-Chloro-2,4-dimethylphenyl)-3-((5-(2,6-dioxopiperidin-3-yl)-4-oxo-5,6-dihydro-4H-thieno[3,4-c]pyrrol-1-yl)methyl)urea]
inhibition at 0.1 µM (IL-6): 87% | inhibition at 0.1 µM (IL-1β): 61% | remaining activity at 0.1 µM (GSPT1): 11.9% | remaining activity at 1 µM (GSPT1): 20% | viability at 1 µM (MDA-MB-231 cells): 24.3% | viability at 10 µM (MDA-MB-231 cells): 19.7% | viability at 1 µM (H1048 cells): 7.67% | viability at 10 µM (H1048 cells): 6.1% | cytotoxicity at 0.1 µM (Molm-13 cells; [1]): 100% | inhibition at 0.1 µM (TNF-α): 62%

Cc1ccc(NC(=O)NCc2scc3c2CN(C2CCC(=O)NC2=O)C3=O)cc1Cl (stereo not shown) [Compound 9, 1-(3-chloro-4-methylphenyl)-3-((5-(2,6-dioxopiperidin-3-yl)-4-oxo-5,6-dihydro-4H-thieno[3,4-c]pyrrol-1-yl)methyl)urea]
inhibition at 0.1 µM (IL-6): 100% | inhibition at 0.1 µM (IL-1β): 98% | remaining activity at 0.1 µM (GSPT1): 6.77% | remaining activity at 1 µM (GSPT1): 5.31% | viability at 1 µM (MDA-MB-231 cells): 19.6% | viability at 10 µM (MDA-MB-231 cells): 19.1% | viability at 1 µM (H1048 cells): 7.5% | viability at 10 µM (H1048 cells): 7.93% | IC50 (H1048 cells; NCI-H1048, H1048 cells, 72 hrs (FIG. 10A)): 0.5 nM | cytotoxicity at 0.003 µM (Molm-13 cells; MOLM-13, compound concentration 0.003 μM, read-out: % Inhibition (MOLM-13 Cell Viability)): 50% | IC50 (Molm-13 cells; Molm-13 cells, 72 hrs (FIG. 10B), read-out: approximate IC50 cell viability): ~3 nM | inhibition at 0.1 µM (TNF-α): 98%

Cc1ccc(NC(=S)NCc2scc3c2CN(C2CCC(=O)NC2=O)C3=O)cc1Cl (stereo not shown) [Compound 52, 1-(3-Chloro-4-methylphenyl)-3-((5-(2,6-dioxopiperidin-3-yl)-4-oxo-5,6-dihydro-4H-thieno[3,4-c]pyrrol-1-yl)methyl)thiourea]
inhibition at 0.1 µM (IL-6): 100% | inhibition at 0.1 µM (IL-1β): 98% | remaining activity at 0.1 µM (GSPT1): 0.58% | remaining activity at 1 µM (GSPT1): 1.05% | viability at 1 µM (MDA-MB-231 cells): 22.4% | viability at 10 µM (MDA-MB-231 cells): 20.5% | viability at 1 µM (H1048 cells): 9.22% | viability at 10 µM (H1048 cells): 10.3% | cytotoxicity at 0.1 µM (Molm-13 cells; [1]): 99% | inhibition at 0.1 µM (TNF-α): 95%

Cc1ccc(NC(=O)NCc2csc3c2CN([C@H]2CCCC(=O)NC2=O)C3=O)cc1Cl [Compound 45, (S)-1-(3-Chloro-4-methylphenyl)-3-((5-(2,7-dioxoazepan-3-yl)-6-oxo-5,6-dihydro-4H-thieno[2,3-c]pyrrol-3-yl)methyl)urea]
inhibition at 1 µM (IL-6): 18% | inhibition at 1 µM (IL-1β): 19% | remaining activity at 0.1 µM (GSPT1): 90.3% | remaining activity at 1 µM (GSPT1): 22.3% | viability at 1 µM (MDA-MB-231 cells): 101% | viability at 10 µM (MDA-MB-231 cells): 46.7% | viability at 1 µM (H1048 cells): 12.7% | viability at 10 µM (H1048 cells): 9.89% | cytotoxicity at 1 µM (Molm-13 cells; [1]): 59% | inhibition at 1 µM (TNF-α): 22%

Cc1ccc(NC(=O)NCc2scc3c2CN(C2CCC(=O)NC2=O)C3=O)cc1C(C)C (stereo not shown) [Compound 47, 1-((5-(2,6-Dioxopiperidin-3-yl)-4-oxo-5,6-dihydro-4H-thieno[3,4-c]pyrrol-1-yl)methyl)-3-(3-isopropyl-4-methylphenyl)urea]
inhibition at 0.1 µM (IL-6): 100% | inhibition at 0.1 µM (IL-1β): 99% | remaining activity at 0.1 µM (GSPT1): 0.64% | remaining activity at 1 µM (GSPT1): 2.61% | viability at 1 µM (MDA-MB-231 cells): 21.8% | viability at 10 µM (MDA-MB-231 cells): 19.3% | viability at 1 µM (H1048 cells): 8.91% | viability at 10 µM (H1048 cells): 8.58% | cytotoxicity at 0.1 µM (Molm-13 cells; [1]): 100% | inhibition at 0.1 µM (TNF-α): 97%

O=C1CCC(N2Cc3c(csc3CNC(=O)Nc3ccc(C(F)(F)F)c(Cl)c3)C2=O)C(=O)N1 (stereo not shown) [Compound 55, 1-(3-chloro-4-(trifluoromethyl)phenyl)-3-((5-(2,6-dioxopiperidin-3-yl)-4-oxo-5,6-dihydro-4H-thieno[3,4-c]pyrrol-1-yl)methyl)urea]
inhibition at 0.1 µM (IL-6): 100% | inhibition at 0.1 µM (IL-1β): 99% | remaining activity at 0.1 µM (GSPT1): 1.51% | remaining activity at 1 µM (GSPT1): 2.86% | viability at 1 µM (MDA-MB-231 cells): 20.2% | viability at 10 µM (MDA-MB-231 cells): 19% | viability at 1 µM (H1048 cells): 7.63% | viability at 10 µM (H1048 cells): 7.94% | cytotoxicity at 0.1 µM (Molm-13 cells; [1]): 100% | inhibition at 0.1 µM (TNF-α): 96%
